Assay results taken from ChEMBL document CHEMBL1201862, “PubChem BioAssay data set” (2004).
Each block holds one molecule with its values, some of them ahead of it. The source made the active and inactive calls.

What was measured:
[1] = molecular target: FAD-linked sulfhydryl oxidase ALR (Homo sapiens, UniProt P55789); assay: inhibitors of human ALR sulfhydryl oxidase, dose response, biochemical, H2O2 detection, luminescence, cherry-pick (AID 493248)
[2] = molecular target: T1, Glycogen synthase kinase-3 beta (Homo sapiens, UniProt P49841); assay: GSK3beta kinase inhibitors, dose response, biochemical, microfluidics, dry powder samples, set 2 (AID 623989); format: functional
T1 sequence (P49841 whole entry): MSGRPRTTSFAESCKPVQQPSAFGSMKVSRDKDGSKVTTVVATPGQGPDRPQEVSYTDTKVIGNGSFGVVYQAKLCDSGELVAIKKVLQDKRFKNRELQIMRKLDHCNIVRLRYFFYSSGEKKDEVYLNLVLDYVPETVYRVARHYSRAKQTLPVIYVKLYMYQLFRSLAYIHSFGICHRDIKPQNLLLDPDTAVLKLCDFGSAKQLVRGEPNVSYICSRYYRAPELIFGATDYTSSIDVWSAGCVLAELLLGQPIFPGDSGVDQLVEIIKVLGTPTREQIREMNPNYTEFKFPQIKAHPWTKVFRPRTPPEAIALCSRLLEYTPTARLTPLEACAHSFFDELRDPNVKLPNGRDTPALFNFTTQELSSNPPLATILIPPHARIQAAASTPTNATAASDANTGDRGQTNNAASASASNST

[3] = molecular target: T2, Glycogen synthase kinase-3 alpha (Homo sapiens, UniProt P49840); assay: human GSK3 alpha kinase inhibition, dose response, selectivity assay for GSK3beta inhibitor project, biochemical, microfluidics, dry powder samples, set 2 (AID 623978); format: functional
T2 sequence (P49840 whole entry): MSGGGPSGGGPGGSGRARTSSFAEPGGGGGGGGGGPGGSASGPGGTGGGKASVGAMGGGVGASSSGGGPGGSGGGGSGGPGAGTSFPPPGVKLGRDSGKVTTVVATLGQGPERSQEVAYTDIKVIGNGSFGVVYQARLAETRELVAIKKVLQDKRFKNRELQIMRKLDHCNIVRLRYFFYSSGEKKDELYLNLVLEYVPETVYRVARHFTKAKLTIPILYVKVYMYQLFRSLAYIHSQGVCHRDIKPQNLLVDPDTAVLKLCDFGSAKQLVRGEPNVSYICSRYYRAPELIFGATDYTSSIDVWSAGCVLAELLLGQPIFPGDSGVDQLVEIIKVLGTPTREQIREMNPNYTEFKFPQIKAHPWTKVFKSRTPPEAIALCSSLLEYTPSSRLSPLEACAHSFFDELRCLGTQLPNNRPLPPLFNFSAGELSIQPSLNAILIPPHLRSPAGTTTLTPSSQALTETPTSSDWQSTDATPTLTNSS

[4] = molecular target: Cyclin-dependent kinase 5/CDK5 activator 1 (Homo sapiens, UniProt Q00535); assay: CDK5-p25 kinase inhibition, dose response, selectivity assay for GSK3beta inhibitor project, biochemical, microfluidic mobility shift, dry powder, set 2 (AID 623979); format: functional
[5] = SAR analysis of small molecule activators of Apaf-1 using a LZ-Caspase-9/Caspase-3 Fluorescent Selectivity assay - Set 2.; format: functional; conditions: read-out: EC50_Mean
[6] = molecular target: T3, Apoptotic protease-activating factor 1 (Homo sapiens, UniProt O14727); assay: SAR analysis of small molecule Activators of Apaf-1 in a Fluorescent assay - set 2.; format: functional; conditions: read-out: EC50_Mean
T3 sequence (O14727 whole entry): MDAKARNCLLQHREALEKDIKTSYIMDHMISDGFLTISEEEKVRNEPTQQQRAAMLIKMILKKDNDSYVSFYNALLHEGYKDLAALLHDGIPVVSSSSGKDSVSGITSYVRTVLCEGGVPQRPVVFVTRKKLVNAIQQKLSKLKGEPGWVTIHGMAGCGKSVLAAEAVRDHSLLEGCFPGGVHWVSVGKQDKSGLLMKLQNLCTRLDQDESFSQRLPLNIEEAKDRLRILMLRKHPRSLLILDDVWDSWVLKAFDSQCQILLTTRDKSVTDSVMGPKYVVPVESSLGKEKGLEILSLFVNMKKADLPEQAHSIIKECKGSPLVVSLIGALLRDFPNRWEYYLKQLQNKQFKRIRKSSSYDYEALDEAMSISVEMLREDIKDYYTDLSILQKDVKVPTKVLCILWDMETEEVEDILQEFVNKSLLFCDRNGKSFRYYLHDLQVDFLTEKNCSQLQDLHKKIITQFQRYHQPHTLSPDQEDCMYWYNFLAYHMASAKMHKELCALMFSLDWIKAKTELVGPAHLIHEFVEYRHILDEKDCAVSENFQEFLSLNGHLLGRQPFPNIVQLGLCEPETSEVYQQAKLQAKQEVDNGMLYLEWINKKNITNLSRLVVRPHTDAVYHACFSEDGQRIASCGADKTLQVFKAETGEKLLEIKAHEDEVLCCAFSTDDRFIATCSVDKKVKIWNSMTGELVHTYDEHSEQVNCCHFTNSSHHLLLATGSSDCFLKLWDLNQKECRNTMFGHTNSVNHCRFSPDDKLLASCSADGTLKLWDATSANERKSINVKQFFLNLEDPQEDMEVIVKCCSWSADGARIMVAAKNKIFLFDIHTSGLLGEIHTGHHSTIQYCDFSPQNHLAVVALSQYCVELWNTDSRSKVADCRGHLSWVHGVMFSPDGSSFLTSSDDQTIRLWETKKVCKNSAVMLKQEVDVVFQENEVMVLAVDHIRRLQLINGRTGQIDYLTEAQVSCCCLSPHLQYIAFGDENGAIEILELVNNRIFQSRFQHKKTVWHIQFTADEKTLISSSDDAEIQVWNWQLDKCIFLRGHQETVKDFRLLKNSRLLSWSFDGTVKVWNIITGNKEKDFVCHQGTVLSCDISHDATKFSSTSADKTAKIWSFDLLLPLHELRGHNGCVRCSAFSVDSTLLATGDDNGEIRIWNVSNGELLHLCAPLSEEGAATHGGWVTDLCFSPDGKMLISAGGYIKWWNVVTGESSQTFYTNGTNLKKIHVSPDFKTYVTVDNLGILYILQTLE

[7] = molecular target: Protein kinase C theta type (Homo sapiens, UniProt Q04759); assay: Navigating the Kinome. Panel member name: PRKCQ; format: functional
[8] = molecular target: Ribosomal protein S6 kinase alpha-3 (Homo sapiens, UniProt P51812); format: functional;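 further: measured within a kinome-wide profiling panel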
Chain of Ribosomal protein S6 kinase alpha-3 (P51812 whole entry): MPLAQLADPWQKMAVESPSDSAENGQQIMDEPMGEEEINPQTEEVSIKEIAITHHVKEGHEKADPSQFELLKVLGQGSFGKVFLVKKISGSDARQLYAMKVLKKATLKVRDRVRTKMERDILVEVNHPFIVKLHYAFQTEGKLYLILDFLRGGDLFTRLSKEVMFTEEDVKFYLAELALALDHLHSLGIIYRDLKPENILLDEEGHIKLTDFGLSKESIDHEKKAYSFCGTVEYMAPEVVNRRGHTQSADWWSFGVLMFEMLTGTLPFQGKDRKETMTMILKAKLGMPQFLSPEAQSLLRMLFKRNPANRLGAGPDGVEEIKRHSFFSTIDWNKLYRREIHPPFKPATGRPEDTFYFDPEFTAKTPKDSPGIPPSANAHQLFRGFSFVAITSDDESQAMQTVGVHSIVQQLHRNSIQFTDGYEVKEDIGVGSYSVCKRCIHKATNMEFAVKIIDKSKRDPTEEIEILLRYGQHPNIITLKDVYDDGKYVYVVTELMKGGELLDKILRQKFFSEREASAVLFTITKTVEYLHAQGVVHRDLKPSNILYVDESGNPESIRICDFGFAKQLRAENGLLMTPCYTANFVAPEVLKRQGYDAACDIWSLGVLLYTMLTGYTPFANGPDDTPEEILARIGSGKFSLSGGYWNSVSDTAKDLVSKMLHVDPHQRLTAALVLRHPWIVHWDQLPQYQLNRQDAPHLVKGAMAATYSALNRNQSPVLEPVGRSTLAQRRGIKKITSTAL

[9] = molecular target: Dual specificity protein kinase CLK2 (Homo sapiens, UniProt P49760); format: functional
[10] = molecular target: Dual specificity mitogen-activated protein kinase kinase 1 (Homo sapiens, UniProt Q02750); assay: Navigating the Kinome. Panel member name: MAP2K1; format: functional
[11] = molecular target: Tyrosine-protein kinase JAK2 (Homo sapiens, UniProt O60674); format: functional;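 further: JAK2 tested as one member of a kinase panel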
Chain of Tyrosine-protein kinase JAK2 (O60674 whole entry): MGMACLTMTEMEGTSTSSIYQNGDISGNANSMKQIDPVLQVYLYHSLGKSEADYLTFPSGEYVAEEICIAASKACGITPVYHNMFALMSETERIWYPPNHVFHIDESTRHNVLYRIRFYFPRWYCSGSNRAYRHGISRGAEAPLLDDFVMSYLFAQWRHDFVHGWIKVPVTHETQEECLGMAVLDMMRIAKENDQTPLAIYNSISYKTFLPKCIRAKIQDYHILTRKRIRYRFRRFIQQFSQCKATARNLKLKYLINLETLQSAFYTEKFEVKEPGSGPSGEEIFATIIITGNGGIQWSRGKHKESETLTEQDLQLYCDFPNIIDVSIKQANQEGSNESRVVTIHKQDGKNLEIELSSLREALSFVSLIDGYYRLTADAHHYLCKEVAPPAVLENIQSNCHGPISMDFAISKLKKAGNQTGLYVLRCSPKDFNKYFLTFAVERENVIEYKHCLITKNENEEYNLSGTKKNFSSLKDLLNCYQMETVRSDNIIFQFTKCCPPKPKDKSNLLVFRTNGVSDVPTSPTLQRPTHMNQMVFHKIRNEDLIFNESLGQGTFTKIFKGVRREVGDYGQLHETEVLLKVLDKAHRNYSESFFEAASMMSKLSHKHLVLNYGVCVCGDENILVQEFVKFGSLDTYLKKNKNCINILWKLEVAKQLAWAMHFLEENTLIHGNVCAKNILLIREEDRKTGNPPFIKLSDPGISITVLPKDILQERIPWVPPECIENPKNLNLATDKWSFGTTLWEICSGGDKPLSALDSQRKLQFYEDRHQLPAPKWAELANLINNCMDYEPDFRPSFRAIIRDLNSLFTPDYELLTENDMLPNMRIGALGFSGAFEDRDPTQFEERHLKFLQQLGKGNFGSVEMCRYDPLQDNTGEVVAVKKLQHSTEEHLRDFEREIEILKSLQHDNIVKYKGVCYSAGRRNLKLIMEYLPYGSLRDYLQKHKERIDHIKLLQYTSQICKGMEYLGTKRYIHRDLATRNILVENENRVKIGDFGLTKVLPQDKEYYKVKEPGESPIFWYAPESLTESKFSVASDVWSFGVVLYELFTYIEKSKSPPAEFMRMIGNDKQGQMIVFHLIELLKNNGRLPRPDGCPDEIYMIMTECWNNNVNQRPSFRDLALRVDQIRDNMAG

[12] = molecular target: Serine/threonine-protein kinase TBK1 (Homo sapiens, UniProt Q9UHD2); assay: Navigating the Kinome. Panel member name: TBK1; format: functional
[13] = molecular target: 5'-AMP-activated protein kinase catalytic subunit alpha-1 (Homo sapiens, UniProt Q13131); format: functional
[14] = molecular target: ALK tyrosine kinase receptor (Homo sapiens, UniProt Q9UM73); format: functional;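 further: ALK tested as one member of a kinase panel screen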
[15] = molecular target: Proto-oncogene tyrosine-protein kinase receptor Ret (Homo sapiens, UniProt P07949); format: functional;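 further: measured within a kinome-wide profiling panel, RET as the panel member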
[16] = molecular target: Tyrosine-protein kinase receptor TYRO3 (Homo sapiens, UniProt Q06418); format: functional;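 further: TYRO3 value obtained as one member of a kinome-wide profiling panel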
[17] = molecular target: Serine/threonine-protein kinase D3 (Homo sapiens, UniProt O94806); format: functional;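 further: determined within a kinase panel screen, with PRKCN as the panel member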
Chain of Serine/threonine-protein kinase D3 (O94806 whole entry): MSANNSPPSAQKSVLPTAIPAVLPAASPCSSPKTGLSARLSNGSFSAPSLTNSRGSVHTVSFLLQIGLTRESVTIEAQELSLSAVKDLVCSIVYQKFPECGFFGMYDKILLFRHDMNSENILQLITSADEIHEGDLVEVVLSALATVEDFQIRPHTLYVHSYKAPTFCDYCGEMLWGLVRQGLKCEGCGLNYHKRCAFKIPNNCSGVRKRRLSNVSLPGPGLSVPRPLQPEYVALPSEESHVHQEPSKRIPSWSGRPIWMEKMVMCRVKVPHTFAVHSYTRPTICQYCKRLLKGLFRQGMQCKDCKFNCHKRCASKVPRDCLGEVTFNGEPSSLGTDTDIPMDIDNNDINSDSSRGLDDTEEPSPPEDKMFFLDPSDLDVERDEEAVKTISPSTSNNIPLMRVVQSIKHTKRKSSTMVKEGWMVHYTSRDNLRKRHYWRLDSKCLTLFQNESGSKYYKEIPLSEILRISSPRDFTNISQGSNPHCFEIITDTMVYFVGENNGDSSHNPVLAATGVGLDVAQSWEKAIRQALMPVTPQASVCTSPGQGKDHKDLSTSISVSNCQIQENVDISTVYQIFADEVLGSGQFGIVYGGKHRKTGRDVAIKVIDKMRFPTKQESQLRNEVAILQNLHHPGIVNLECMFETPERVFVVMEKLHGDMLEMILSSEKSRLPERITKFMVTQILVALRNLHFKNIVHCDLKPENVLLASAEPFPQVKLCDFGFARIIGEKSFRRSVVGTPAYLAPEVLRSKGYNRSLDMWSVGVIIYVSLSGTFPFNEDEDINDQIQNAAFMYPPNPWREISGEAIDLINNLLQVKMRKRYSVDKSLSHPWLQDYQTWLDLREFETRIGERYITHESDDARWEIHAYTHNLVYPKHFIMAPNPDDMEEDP

[18] = molecular target: Tyrosine-protein kinase Lck (Homo sapiens, UniProt P06239); format: functional;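 further: lck was assayed as one member of a kinase panel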
[19] = molecular target: Death-associated protein kinase 3 (Homo sapiens, UniProt O43293); format: functional;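 further: measured as one member of a kinome-wide profiling panel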
[20] = molecular target: Activin receptor type-1 (Homo sapiens, UniProt Q04771); assay: Navigating the Kinome. Panel member name: ACVR1; format: functional
[21] = molecular target: Mitogen-activated protein kinase 8 (Homo sapiens, UniProt P45983); format: functional;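 further: value comes from one member of a kinome-wide kinase profiling panel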
[22] = molecular target: Serine/threonine-protein kinase pim-1 (Homo sapiens, UniProt P11309); format: functional
[23] = molecular target: Aurora kinase A (Homo sapiens, UniProt O14965); format: functional;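 further: value from the Navigating the Kinome kinase panel profiling, panel entry STK6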
[24] = molecular target: Tyrosine-protein kinase BTK (Homo sapiens, UniProt Q06187); format: functional
[25] = molecular target: Serine/threonine-protein kinase PAK 4 (Homo sapiens, UniProt O96013); format: functional;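 further: value obtained within a kinome profiling panel in which PAK4 was one of the panel members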
[26] = molecular target: Fibroblast growth factor receptor 1 (Homo sapiens, UniProt P11362); format: functional
[27] = molecular target: Tyrosine-protein kinase JAK3 (Homo sapiens, UniProt P52333); format: functional
[28] = molecular target: Mitogen-activated protein kinase 9 (Homo sapiens, UniProt P45984); format: functional;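 further: value from a kinome panel profiling assay, MAPK9 panel entry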
[29] = molecular target: Serine/threonine-protein kinase N2 (Homo sapiens, UniProt Q16513); format: functional
[30] = molecular target: Serine/threonine-protein kinase TAO1 (Homo sapiens, UniProt Q7L7X3); format: functional
[31] = molecular target: T2, Glycogen synthase kinase-3 alpha; format: functional
[32] = molecular target: Mitogen-activated protein kinase kinase kinase kinase 2 (Homo sapiens, UniProt Q12851); format: functional;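 further: measured as one member of a kinome-wide kinase panel, with MAP4K2 as the panel entry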
[33] = molecular target: Activated CDC42 kinase 1 (Homo sapiens, UniProt Q07912); assay: Navigating the Kinome. Panel member name: ACK1; format: functional
[34] = molecular target: Receptor-type tyrosine-protein kinase FLT3 (Homo sapiens, UniProt P36888); format: functional;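 further: FLT3 was tested as one member of a kinome-wide kinase panel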
[35] = molecular target: Tyrosine-protein kinase ABL1 (Homo sapiens, UniProt P00519); format: functional
[36] = molecular target: Vascular endothelial growth factor receptor 2 (Homo sapiens, UniProt P35968); format: functional
[37] = molecular target: G protein-coupled receptor kinase 5 (Homo sapiens, UniProt P34947); assay: Navigating the Kinome. Panel member name: GPRK5; format: functional
[38] = molecular target: Cyclin-dependent kinase 5 (Homo sapiens, UniProt Q00535); format: functional;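 further: CDK5 measured as one member of a kinase profiling panel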
[39] = molecular target: Insulin-like growth factor 1 receptor (Homo sapiens, UniProt P08069); assay: Navigating the Kinome. Panel member name: IGF1R; format: functional
[40] = molecular target: Dual specificity tyrosine-phosphorylation-regulated kinase 1B (Homo sapiens, UniProt Q9Y463); assay: Navigating the Kinome. Panel member name: DYRK1B; format: functional
[41] = molecular target: cAMP-dependent protein kinase catalytic subunit PRKX (Homo sapiens, UniProt P51817); format: functional
[42] = molecular target: Platelet-derived growth factor receptor alpha (Homo sapiens, UniProt P16234); assay: Navigating the Kinome. Panel member name: PDGFRA; format: functional
[43] = molecular target: Leucine-rich repeat serine/threonine-protein kinase 2 (Homo sapiens, UniProt Q5S007); format: functional;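 further: value from a broad kinome-wide panel profiling study in which LRRK2 was one of the kinases tested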
[44] = molecular target: Rho-associated protein kinase 1 (Homo sapiens, UniProt Q13464); format: functional;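 further: measured within a broad kinome-wide panel profiling many kinases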
[45] = molecular target: Tyrosine-protein kinase Fyn (Homo sapiens, UniProt P06241); format: functional
[46] = molecular target: Cyclin-dependent kinase 8 (Homo sapiens, UniProt P49336); assay: Navigating the Kinome. Panel member name: CDK8; format: functional
[47] = molecular target: Cyclin-dependent kinase 7 (Homo sapiens, UniProt P50613); format: functional;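 further: value comes from a kinome-wide kinase profiling panel in which CDK7 is one member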
[48] = molecular target: Vascular endothelial growth factor receptor 1 (Homo sapiens, UniProt P17948); format: functional;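 further: measured within a kinome-wide profiling panel, FLT1 as the panel member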
Chain of Vascular endothelial growth factor receptor 1 (P17948 whole entry): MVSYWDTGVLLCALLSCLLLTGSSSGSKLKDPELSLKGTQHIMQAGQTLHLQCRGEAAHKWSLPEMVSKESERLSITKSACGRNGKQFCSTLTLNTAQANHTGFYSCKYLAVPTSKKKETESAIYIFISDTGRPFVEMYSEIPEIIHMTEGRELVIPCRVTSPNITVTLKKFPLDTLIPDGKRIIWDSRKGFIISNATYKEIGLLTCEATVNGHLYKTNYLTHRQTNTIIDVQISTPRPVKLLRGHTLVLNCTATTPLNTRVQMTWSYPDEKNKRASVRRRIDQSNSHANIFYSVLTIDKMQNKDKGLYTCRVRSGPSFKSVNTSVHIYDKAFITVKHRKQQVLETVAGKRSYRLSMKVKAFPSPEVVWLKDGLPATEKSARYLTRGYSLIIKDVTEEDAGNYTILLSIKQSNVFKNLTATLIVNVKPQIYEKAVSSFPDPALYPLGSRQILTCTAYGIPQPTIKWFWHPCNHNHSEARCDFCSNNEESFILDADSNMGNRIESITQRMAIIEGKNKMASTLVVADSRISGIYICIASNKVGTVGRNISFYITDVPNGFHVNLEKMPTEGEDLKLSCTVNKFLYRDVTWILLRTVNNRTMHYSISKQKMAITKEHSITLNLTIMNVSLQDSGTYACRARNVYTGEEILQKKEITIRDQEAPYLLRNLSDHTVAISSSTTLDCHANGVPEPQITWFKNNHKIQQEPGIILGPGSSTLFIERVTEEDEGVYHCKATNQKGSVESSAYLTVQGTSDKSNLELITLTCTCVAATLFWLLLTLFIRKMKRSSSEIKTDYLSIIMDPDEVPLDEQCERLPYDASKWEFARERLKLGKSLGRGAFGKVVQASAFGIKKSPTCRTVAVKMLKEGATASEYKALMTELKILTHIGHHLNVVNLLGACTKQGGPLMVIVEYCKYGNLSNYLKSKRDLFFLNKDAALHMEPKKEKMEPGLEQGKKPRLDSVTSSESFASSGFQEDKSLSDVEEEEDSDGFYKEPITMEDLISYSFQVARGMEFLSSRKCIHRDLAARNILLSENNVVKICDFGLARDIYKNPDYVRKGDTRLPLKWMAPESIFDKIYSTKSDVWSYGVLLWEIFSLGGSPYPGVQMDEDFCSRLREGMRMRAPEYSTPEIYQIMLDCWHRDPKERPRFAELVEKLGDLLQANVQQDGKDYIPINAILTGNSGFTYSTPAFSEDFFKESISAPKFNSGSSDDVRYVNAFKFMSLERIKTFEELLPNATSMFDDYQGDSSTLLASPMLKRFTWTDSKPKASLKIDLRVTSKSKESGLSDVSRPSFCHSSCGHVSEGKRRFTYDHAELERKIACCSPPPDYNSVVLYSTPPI

[49] = molecular target: T1, Glycogen synthase kinase-3 beta; format: functional
[50] = molecular target: Cyclin-dependent kinase 9 (Homo sapiens, UniProt P50750); format: functional;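 further: value from the CDK9 entry of a kinome-spanning kinase panel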
[51] = molecular target: BDNF/NT-3 growth factors receptor (Homo sapiens, UniProt Q16620); format: functional;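 further: NTRK2 measured as one member of a broad kinome-wide kinase profiling panel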
[52] = molecular target: cAMP-dependent protein kinase catalytic subunit alpha (Homo sapiens, UniProt P17612); format: functional
[53] = molecular target: Dual specificity protein kinase CLK4 (Homo sapiens, UniProt Q9HAZ1); format: functional
[54] = molecular target: Mitogen-activated protein kinase kinase kinase kinase 4 (Homo sapiens, UniProt O95819); format: functional
[55] = molecular target: Macrophage-stimulating protein receptor (Homo sapiens, UniProt Q04912); assay: Navigating the Kinome. Panel member name: MST1R; format: functional
[56] = molecular target: Macrophage colony-stimulating factor 1 receptor (Homo sapiens, UniProt P07333); format: functional;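 further: value comes from the Navigating the Kinome screening panel, CSF1R member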
[57] = molecular target: Dual specificity mitogen-activated protein kinase kinase 2 (Homo sapiens, UniProt P36507); assay: Navigating the Kinome. Panel member name: MAP2K2; format: functional
[58] = molecular target: Dual specificity tyrosine-phosphorylation-regulated kinase 1A (Homo sapiens, UniProt Q13627); format: functional;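 further: measured against DYRK1A as one member of a broad kinome profiling panel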
[59] = molecular target: Inhibitor of nuclear factor kappa-B kinase subunit epsilon (Homo sapiens, UniProt Q14164); assay: Navigating the Kinome. Panel member name: IKBKE; format: functional
[60] = molecular target: Calcium/calmodulin-dependent protein kinase type II subunit alpha (Homo sapiens, UniProt Q9UQM7); assay: Navigating the Kinome. Panel member name: CAMK2A; format: functional
[61] = molecular target: Leukocyte tyrosine kinase receptor (Homo sapiens, UniProt P29376); assay: Navigating the Kinome. Panel member name: LTK; format: functional
[62] = molecular target: Mitogen-activated protein kinase 14 (Homo sapiens, UniProt Q16539); format: functional;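 further: part of a kinome-wide panel, MAPK14 entry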

- AC50 [1]: 2.51 µM (active)
- AC50 [2]: 1.46 µM (active)
- AC50 [3]: 5.47 µM (active)
- AC50 [4]: 3.7 µM (active)
Compound: COc1ccc(S(=O)(=O)Nc2c(C(=O)O)[nH]c3ccc(OC)cc23)cc1

- EC50 [5]: > 100 µM (inactive)
- EC50 [6]: 42.6 µM (active)
Compound: CC(Cn1nnc2ccccc21)C(=O)O (configuration not stated)

- Ki [7]: > 1.26 µM (inactive)
- Ki [8]: > 3.98 µM (inactive)
- Ki [9]: > 3.98 µM (inactive)
- Ki [10]: > 3.16 µM (inactive)
- Ki [11]: 0.000794 µM (active)
- Ki [12]: > 3.16 µM (inactive)
- Ki [13]: > 3.16 µM (inactive)
- Ki [14]: > 6.31 µM (inactive)
- Ki [15]: 2.51 µM (active)
- Ki [16]: > 3.16 µM (inactive)
- Ki [17]: > 3.98 µM (inactive)
- Ki [18]: 2.51 µM (active)
- Ki [20]: > 3.98 µM (inactive)
- Ki [21]: > 2.51 µM (inactive)
- Ki [22]: > 6.31 µM (inactive)
- Ki [23]: > 1.58 µM (inactive)
- Ki [24]: > 6.31 µM (inactive)
- Ki [25]: > 5.01 µM (inactive)
- Ki [26]: > 3.98 µM (inactive)
- Ki [27]: 0.00316 µM (active)
- Ki [28]: > 3.98 µM (inactive)
- Ki [29]: 0.316 µM (active)
- Ki [30]: > 6.31 µM (inactive)
- Ki [31]: 2.51 µM (active)
- Ki [32]: > 2.51 µM (inactive)
- Ki [33]: > 3.16 µM (inactive)
- Ki [34]: > 3.16 µM (inactive)
- Ki [35]: > 3.98 µM (inactive)
- Ki [36]: 1.26 µM (active)
- Ki [37]: > 3.98 µM (inactive)
- Ki [38]: > 3.16 µM (inactive)
- Ki [39]: > 2.51 µM (inactive)
- Ki [40]: > 2.51 µM (inactive)
- Ki [41]: 0.316 µM (active)
- Ki [42]: > 2.51 µM (inactive)
- Ki [43]: 0.316 µM (active)
- Ki [44]: 0.0251 µM (active)
- Ki [45]: > 6.31 µM (inactive)
- Ki [46]: > 3.16 µM (inactive)
- Ki [47]: > 3.98 µM (inactive)
- Ki [48]: > 3.98 µM (inactive)
- Ki [49]: > 3.98 µM (inactive)
- Ki [50]: > 1.58 µM (inactive)
- Ki [51]: > 3.98 µM (inactive)
- Ki [52]: 0.501 µM (active)
- Ki [53]: > 2.51 µM (inactive)
- Ki [54]: > 5.01 µM (inactive)
- Ki [55]: > 2.51 µM (inactive)
- Ki [56]: > 2.51 µM (inactive)
- Ki [57]: > 3.98 µM (inactive)
- Ki [58]: > 2 µM (inactive)
- Ki [59]: > 3.16 µM (inactive)
- Ki [60]: > 7.94 µM (inactive)
- Ki [61]: 1 µM (active)
- Ki [62]: > 3.98 µM (inactive)
Compound: CC1CCN(C(=O)CC#N)CC1c1ncc2cnc3[nH]ccc3n12 (configuration not stated)
- Ki [19]: > 5.01 µM (inactive)
